Measurements as given in PubChem BioAssay AID504313 (Emory University Molecular Libraries Screening Center, 2011).
Activity calls are given as the source filed them. How the calls were made is not given here.

target: X-box-binding protein 1 (Homo sapiens) (UniProt P17861); experiment: XBP1 reporter suppression in cells – counter-screen, dose response (AID 504313); conditions: XBP1 reporter cell assay, percent of control;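 further: CHO cells carrying an XBP1 reporter stimulated with tunicamycin; potency is for inhibition of the tunicamycin-induced reporter signal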

Compound | IC50
CCCC(NCC(O)COc1ccc(-c2ccccc2)cc1)c1ccccc1 (stereo not given) | inactive
CCCCCCOC(=O)c1ccccc1N | > 10 µM (inactive)
COC(=O)c1cc(NC(=S)Nc2cc(Cl)cc(Cl)c2)cc(C(=O)OC)c1 | > 10 µM (inactive)
Cc1cc(C)n(-c2nc(N(c3ccccc3)c3ccccc3)nc(-n3nc(C)cc3C)n2)n1 | inactive
COc1ccc(OCc2cccc(C(=O)O)c2)cc1 | 0.4 µM
CN1C2CCC1/C(=C/c1ccccn1)C(=O)/C2=C\c1ccccn1 | 0.54 µM
Nc1nc(-c2ccccc2)c(N=Nc2ccccc2Cl)s1 | inactive
O=C(Nc1ccc(-c2nc3ccccc3s2)cc1)C1=COCCO1 | inactive
O=S(=O)(Nc1cc(Sc2ncn[nH]2)c(O)c2ccccc12)c1ccccc1 | inactive
O=C(CCl)N(c1ccc(Cl)cc1)c1c[nH]c2ccccc12 | inactive
COc1ccc(NC(=O)/C(Cl)=C(/Cl)S(=O)Cc2ccccc2Cl)cn1 (stereo not given) | 0.92 µM
CN(C)c1ccc(/C=C/c2ccc3c4ccccc4ccc3[n+]2-c2ccccc2)cc1 | 2.28 µM
Cc1ccc(C)c(NC(=S)NC(NC(=O)/C=C/c2ccccc2)C(Cl)(Cl)Cl)c1 (stereo not given) | > 10 µM (inactive)
Nc1cc(Cl)ccc1Oc1ccc(Cl)cc1 | inactive
CCOc1cc(/C=N\NC(=O)Cc2ccccc2)ccc1OCC(=O)Nc1ccc(C)c(C)c1 | inactive
Nc1ccc(SC(F)(F)F)cc1C(=O)c1ccccc1 | inactive
Fc1ccc(Nc2nc(NCc3ccco3)c3ccccc3n2)cc1 | > 10 µM (inactive)
Cc1cc(/C=N/n2cnnc2)c(C)n1-c1ccc(OCc2ccccc2F)cc1 | 4.85 µM
CC(C)CCN(C(=O)Cc1ccc(Cl)c(Cl)c1)c1c(N)n(Cc2ccccc2)c(=O)[nH]c1=O | inactive
O=C(NCc1nc(-c2ccc(C(F)(F)F)cc2)no1)Nc1cc(Cl)cc(Cl)c1 | inactive
CCC(C)[C@@H](NC(=O)OC(C)(C)C)c1nnc(S(=O)(=O)Cc2cccc(C)c2)o1 (stereo not given in full) | 4.55 µM
O=C(Nc1ccc(S(=O)(=O)N2CCOCC2)cc1)c1ccc(CN2CCc3ccccc3C2)cc1 | inactive
CCOC(=O)CCS(=O)(=O)c1nc(-c2ccccc2)cc(C(F)(F)F)n1 | inactive
Cc1cccc(C)c1NC(=O)COc1ccccc1C(=O)Nc1ccc(Br)cn1 | > 10 µM (inactive)
O=C1C(C2=NC(c3ccccn3)C3C(=O)N(c4ccc(Cl)cc4Cl)C(=O)C23)=C(O)c2ccccc21 (stereo not given) | inactive

Compound | IC50
O=C(c1ccco1)N1CCN(c2c(-c3ccccc3)c3cc(Cl)ccc3[nH]c2=O)CC1 | > 10 µM (inactive)
Cc1cccc(C)c1N1CCN(c2ccc3nnc(C(F)(F)F)n3n2)CC1 | > 10 µM (inactive)
C=C1C(=O)O[C@@H]2C[C@@H](C)[C@@H]3C=CC(=O)[C@@]3(C)[C@@H](OC(C)=O)[C@H]12 | 2.2 µM
O=C(NC1CCCCC1)C(c1ccc(F)cc1)N(Cc1ccccc1)C(=O)CN1C(=O)c2ccccc2S1(=O)=O (stereo not given) | inactive
S=C(Nc1ccccc1)Nc1ccc(OCc2ccc(Cl)cc2Cl)cc1 | 0.19 µM
C/C(=N\OCc1cccc(C(=O)O)c1)c1ccc(Cl)cc1 | inactive
Cc1ccc(-c2nn(-c3ccccc3)cc2/C=N/NC(=O)c2ccc(Br)o2)cc1 | inactive
C=CCSc1nc2ccccc2n1C(=O)/C=C/c1cc(OC)c(OC)c(OC)c1 | 1.73 µM
COC(=O)/C=C\C(=O)Nc1cccc([N+](=O)[O-])c1 | > 10 µM (inactive)
O=c1c(Cl)nc2cc(Cl)ccc2n1CCNc1ncc(C(F)(F)F)cc1Cl | 4.7 µM
O=C(CCCOc1ccc(Cl)cc1Cl)N/N=C\C1CCCCC1 | inactive
CC(C)(C)c1ccc(-c2noc(CCC(N)=O)n2)cc1 | < 0.16 µM (inactive)
CC[C@@H]1CC=C[C@H]2[C@H]1C(=O)N(Cc1ccccc1)[C@H]2c1ccoc1 | inactive
CCc1ccc(NP(=O)(Oc2ccccc2F)Oc2ccccc2F)cc1 | > 10 µM (inactive)
CCCC(=O)NC(NC(=S)Nc1ccc(N=Nc2ccccc2)cc1)C(Cl)(Cl)Cl (stereo not given) | > 10 µM (inactive)
CC[C@@H](C)[C@H](NC(=O)OC(C)(C)C)c1nnc(S(=O)(=O)Cc2cc(C)ccc2C)o1 | 3.76 µM
O=C(/C=C/Sc1ncn[nH]1)c1ccc(Cl)cc1 | inactive
Cc1ccc(-n2c(Cl)c(Cl)nc(Cl)c2=O)cc1 | 2.32 µM
CC(C)C[C@H](NC(=O)c1[nH]cnc1C(=O)Nc1ccccc1)C(=O)OC(C)(C)C | inactive
Cc1ccc(N=C2SC(C(=O)Nc3ccc(OC(F)(F)F)cc3)C(N)=C2C(=O)Nc2c(C)cc(C)cc2C)cc1 (stereo not given) | > 10 µM (inactive)
Fc1ccc(-n2nnnc2-c2cnc(-c3cccs3)nc2C(F)(F)F)cc1 | inactive
Cc1ccccc1NC(=O)/C=C/c1ccc([N+](=O)[O-])s1 | inactive
CCCCCCCCCCCCCCCC[n+]1cccc(C(=O)N(CC)CC)c1 | inactive
COc1cccc(-n2nnnc2S(C)(=O)=O)c1 | inactive
COc1cccc(-c2nnc(NC(=O)c3ccc(S(=O)(=O)N(CC(C)C)CC(C)C)cc3)o2)c1 | inactive

Compound | IC50
O=C(Cc1ccccc1)Nc1cccc(N2C(=O)C=CC2=O)c1 | inactive
COc1c(CC=C(C)C)cc(C2CC(=O)c3c(O)cc(O)cc3O2)cc1CC=C(C)C (stereo not given) | inactive
Fc1cc(F)c2nc(Nc3nc4cc5c(cc4s3)OCO5)sc2c1 | > 10 µM (inactive)
CC(=O)C(C(C)=O)c1c(Cl)c(O)c(O)c2c(C(=O)c3ccccc3)coc12 | inactive
COc1ccc(-c2cc(C3CCN(Cc4cccc(C(F)(F)F)c4)CC3)[nH]n2)cc1 | inactive
Cc1cc(C)cc(NC(=O)/C(C#N)=C/c2cn(CC(=O)NCc3ccco3)c3ccccc23)c1 | 4.94 µM
Cc1ccc(C(=O)N/C(=C\c2ccc(Br)cc2)c2nc(=S)[nH][nH]2)cc1 | > 10 µM (inactive)
CC(C)(C)c1ccc(C(=O)NNC(=O)c2cccc(Br)c2)cc1 | > 10 µM (inactive)
COc1ccc(Cn2c(SCc3ccccc3C)nc3cc(OC)c(OC)cc3c2=N)cc1 | > 10 µM (inactive)
CCOC(=O)C(NC(=O)Nc1cccc(C)n1)(OCC(F)(F)F)C(F)(F)F (stereo not given) | inactive
CC1CCC(C(C)C)C(OC(=O)COC(=O)c2cc(O)ccc2N)C1 (stereo not given) | inactive
CC1CCc2cc(F)ccc2N1C(=O)CSc1nnc2c(n1)[nH]c1ccc(F)cc12 (stereo not given) | > 10 µM (inactive)
O=C1C(Cl)=C(Nc2ccccc2)C(=O)c2ccccc21 | inactive
Cc1cccc(/C=C/C(=O)c2cc(Br)ccc(=O)c2O)c1 | > 10 µM (inactive)
Cn1cnc([N+](=O)[O-])c1S(=O)(=O)c1cccc(Cl)c1 | inactive
CCOC(=O)c1cc([N+](=O)[O-])c([N+](=O)[O-])cc1NC(C)=O | inactive
CN1CCN(c2ccc(-c3ccc4ccccc4n3)cc2)CC1 | < 0.16 µM (inactive)
COc1ccccc1-c1nnc(NC(=O)c2ccc(S(=O)(=O)N(C)Cc3ccccc3)cc2)o1 | inactive
O=C(CN1C(=O)c2ccccc2S1(=O)=O)c1ccc2c(c1)OCCCO2 | 0.37 µM
CCOC(=O)c1c(/N=C/c2c(O)n(-c3cccc(C)c3)c(=O)[nH]c2=O)sc2c1CCCC2 | 0.53 µM
O=C(c1ccc(COc2ccc(Cl)cc2)o1)N1N=C(C(F)F)CC1(O)C(F)F (stereo not given) | inactive
CS(=O)(=O)c1nc(-c2ccccc2)cc(C(F)(F)F)n1 | inactive
CCOC(=O)Cc1cc(-c2ccc(O)cc2)nc2ccc3ccccc3c12 | > 10 µM (inactive)
C=C(C)C(=O)OC1(C(F)(F)F)Oc2cc(C)ccc2NC1=O (stereo not given) | inactive
CCOc1ccc(-c2nc(CSCC(=O)NCc3ccco3)c(C)o2)cc1 | < 0.16 µM

Compound | IC50
C=CCc1cc(C)ccc1OCC(O)CN1CCN(c2ccccc2)CC1 (stereo not given) | inactive
COc1ccc(/C=C2/C(=O)ON=C2c2ccccc2)cc1OC | > 10 µM (inactive)
O=C(OCn1ncc(Br)c(Br)c1=O)c1ccccc1Cl | 4.81 µM
CCc1ccc(-c2nc(CSCC(=O)NCc3ccco3)c(C)o2)cc1 | < 0.16 µM
Cc1nc2ccccn2c1C(=O)N=Nc1c(O)n(CCC(C)C)c2ccccc12 | > 10 µM (inactive)
Cc1cccc(OCC(=O)N/N=C\C=C\c2ccc3c(c2)OCO3)c1C | > 10 µM (inactive)
Cc1nc(Nc2ccc(F)cc2)[nH]c(=O)c1CCC(C)C | inactive
COc1ccc(C(=O)Nc2nnc(-c3ccco3)s2)cc1 | inactive
Cc1cc(C)c2nc(C(F)(F)F)c(C#N)c(N)c2c1 | > 10 µM (inactive)
O=C1CC(c2cccc(Cl)c2)CC(O)=C1C=Nc1cccc(Cl)c1 (stereo not given) | > 10 µM (inactive)
CC1CCC(n2c(=S)[nH]c3ccccc3c2=O)CC1 (stereo not given) | > 10 µM (inactive)
O=C(Cn1c(C(F)(F)F)nc2ccccc21)N=Nc1c(O)[nH]c2ccc(Br)cc12 | > 10 µM (inactive)
Cc1cccc(/C=C2/S/C(=N/N=C3\CC4CCC3(C)C4(C)C)NC2=O)c1 (stereo not given) | inactive
CCCCCc1c(C)nc(NCc2ccccc2)[nH]c1=O | > 10 µM (inactive)
Cc1cc(C)c(S(=O)(=O)c2ccccc2)c(OC(=O)c2cc(F)c(F)cc2Cl)n1 | inactive
COc1cc2c(cc1OC)C(c1ccccc1)N(C(=O)CCl)CC2 (stereo not given) | inactive
CCc1ccc(OCCNC(=O)c2ccccc2SCc2ccccc2)cc1 | > 10 µM (inactive)
COc1ccccc1-c1cc(C(F)(F)F)nc(S(=O)(=O)CCCC(=O)Nc2cccnc2Cl)n1 | > 10 µM (inactive)
CCn1c(C)nc2cc(-c3nc4n(n3)Cc3ccccc3-4)ccc21 | < 0.16 µM (inactive)
O=C(Nc1ccc(OC(F)F)cc1)Nc1cccc(C(F)(F)F)c1 | > 10 µM (inactive)
CC(C)(C)C(=O)Nc1ccc(-c2nc3ccccc3c(=O)o2)cc1 | 1.2 µM
Cc1ccccc1CS(=O)(=O)c1nnc([C@H](Cc2ccccc2)NC(=O)OC(C)(C)C)o1 | inactive
CC(C)(C)c1ccc(-c2n[nH]c(=S)n2C2CCCC2)cc1 | > 10 µM (inactive)
CC1(c2ccccc2)CC(C)(C)N2C(=O)C3(C(C#N)=C(N)Oc4cc(O)ccc43)c3cccc1c32 (stereo not given) | > 10 µM (inactive)
CCOC(=O)/C=C/S(=O)(=O)c1ccc(NC(C)=O)cc1 | inactive
